In US9856254B2, “Alkoxy substituted imidazoquinolines” (3M INNOVATIVE PROPERTIES COMPANY, priority 2003, dated 2018):
Counter-ions that a name gives are not always drawn.

Question: With `CCOCc1nc2c(N)nc3cc(OCCCN4CCCC4=O)ccc3c2n1CCCCNS(C)(=O)=O` [Example 400, N-(4-{4-Amino-2-(ethoxymethyl)-7-[3-(2-oxopyrrolidin-1-yl)propoxy]-1H-imidazo[4,5-c]quinolin-1-yl}butyl)methanesulfonamide] as the molecule, how does the melting point read?
Answer: Its melting point is 157 °C.

Question: For `CCCn1c(COC)nc2c(N)nc3ccc(OCC4CCCN(C)C4)cc3c21` (centres unmarked) [Example 558, 2-Methoxymethyl-8-(1-methylpiperidin-3-ylmethoxy)-1-propyl-1H-imidazo[4,5-c]quinolin-4-amine], which melting point is on record?
Answer: The melting point was 194 to 196 °C.

Question: For `CCCc1nc2c(N)nc3cc(OC4CCOC4)ccc3c2n1CC(C)C` (centres unmarked) [Example 55, 1-(2-Methylpropyl)-2-propyl-7-(tetrahydrofuran-3-yloxy)-1H-imidazo[4,5-c]quinolin-4-amine], which melting point is on record?
Answer: The melting point was 178 to 182 °C.

Question: For `CCCn1c(CCOC)nc2c(N)nc3cc(OCCCS(C)(=O)=O)ccc3c21` [Example 392, 2-(2-Methoxyethyl)-7-[3-(methylsulfonyl)propoxy]-1-propyl-1H-imidazo[4,5-c]quinolin-4-amine], which melting point is on record?
Answer: The melting point was 170 to 171 °C.

Question: Which melting point does the source give for `CCCc1nc2c(N)nc3cc(OCCCCCCNS(C)(=O)=O)ccc3c2n1CCCCNS(C)(=O)=O` [Example 47, N-(4-{4-Amino-7-[6-(methanesulfonylamino)hexyloxy]-2-propyl-1H-imidazo[4,5-c]quinolin-1-yl}butyl)methanesulfonamide] here?
Answer: The melting point was 138 to 140 °C.

Question: Which melting point does the source give for `CCCn1c(CCOC)nc2c(N)nc3cc(OC4CCN(C(=O)C(C)C)CC4)ccc3c21` [Example 389, 7-[(1-Isobutyrylpiperidin-4-yl)oxy]-2-(2-methoxyethyl)-1-propyl-1H-imidazo[4,5-c]quinolin-4-amine] here?
Answer: Its melting point is 165 to 166 °C.

Question: With `CCCc1nc2c(N)nc3cc(OCCCCCCNC(C)=O)ccc3c2n1CCCCNS(C)(=O)=O` [Example 48, N-(6-{4-Amino-1-[4-(methanesulfonylamino)butyl]-2-propyl-1H-imidazo[4,5-c]quinolin-7-yloxy}hexyl)acetamide] as the molecule, how does the melting point read?
Answer: The melting point was 168 to 172 °C.

Question: Which melting point does the source give for `Cc1nc2c(N)nc3cc(OCCC4CCN(C(=O)C(C)C)CC4)ccc3c2n1CC(C)C` [Example 26, 1-(4-{2-[4-Amino-2-methyl-1-(2-methylpropyl)-1H-imidazo[4,5-c]quinolin-7-yloxy]ethyl}piperidin-1-yl)-2-methylpropan-1-one] here?
Answer: Its melting point is 205.1 to 207.1 °C.

Question: Which melting point does the source give for `CCCn1c(COCC)nc2c(N)nc3ccc(OCCCN4CCCC4=O)cc3c21` [Example 405, 1-(3-{[4-Amino-2-(ethoxymethyl)-1-propyl-1H-imidazo[4,5-c]quinolin-8-yl]oxy}propyl)pyrrolidin-2-one] here?
Answer: The melting point was 188.5 to 190 °C.

Question: With `Cc1nc2c(N)nc3cc(OCCNC(=O)N4CCOCC4)ccc3c2n1CC(C)C` [Example 19, N-(2-{[4-Amino-2-methyl-1-(2-methylpropyl)-1H-imidazo[4,5-c]quinolin-7-yl]oxy}ethyl)morpholine-4-carboxamide] as the molecule, how does the melting point read?
Answer: The melting point was 215 to 219 °C (dec.).

Question: With `CCc1nc2c(N)nc3cc(OCC(=O)N4CCOCC4)ccc3c2n1CC1CCOCC1` [Example 553, 2-Ethyl-7-(2-morpholin-4-yl-2-oxoethoxy)-1-(tetrahydro-2H-pyran-4-ylmethyl)-1H-imidazo[4,5-c]quinolin-4-amine] as the molecule, how does the melting point read?
Answer: Its melting point is 245 to 247 °C.

Question: Which melting point does the source give for `CCCn1c(CCOC)nc2c(N)nc3cc(OCCCNC(=O)OC(C)(C)C)ccc3c21` [Example 393, tert-Butyl 3-{[4-amino-2-(2-methoxyethyl)-1-propyl-1H-imidazo[4,5-c]quinolin-7-yl]oxy}propylcarbamate] here?
Answer: The melting point was 133.5 to 135 °C.

Question: Which melting point does the source give for `CCCn1c(COCC)nc2c(N)nc3ccc(OCC(=O)N4CCN(C(=O)OC(C)(C)C)CC4)cc3c21` [Example 404, tert-Butyl 4-({[4-amino-2-(ethoxymethyl)-1-propyl-1H-imidazo[4,5-c]quinolin-8-yl]oxy}acetyl)piperazine-1-carboxylate] here?
Answer: Its melting point is 192 to 197 °C (dec.).

Question: Which melting point does the source give for `CCCn1c(COC)nc2c(N)nc3ccc(OCCCOC(=O)N4CCOCC4)cc3c21` [Example 555, 3-{[4-Amino-2-(methoxymethyl)-1-propyl-1H-imidazo[4,5-c]quinolin-8-yl]oxy}propyl morpholine-4-carboxylate] here?
Answer: The melting point was 173 to 174 °C.

Question: With `CCCn1c(COCC)nc2c(N)nc3ccc(OCCCCCCNC(=O)C(C)C)cc3c21` [Example 407, N-(6-{[4-Amino-2-(ethoxymethyl)-1-propyl-1H-imidazo[4,5-c]quinolin-8-yl]oxy}hexyl)-2-methylpropanamide] as the molecule, how does the melting point read?
Answer: The melting point was 136 to 138 °C.

Question: With `CCc1nc2c(N)nc3cc(OCC(=O)N4CCOCC4)ccc3c2n1CC(C)C` [Example 30, 2-Ethyl-1-(2-methylpropyl)-7-(2-morpholin-4-yl-2-oxoethoxy)-1H-imidazo[4,5-c]quinolin-4-amine] as the molecule, how does the melting point read?
Answer: Its melting point is 219 to 220 °C.

Question: Which melting point does the source give for `CCOCc1nc2c(N)nc3cc(OCCCCCCNC(C)=O)ccc3c2n1CC(C)(C)NC(C)=O` [Example 50, N-(2-{7-[6-(Acetylamino)hexyloxy]-4-amino-2-ethoxymethyl-1H-imidazo[4,5-c]quinolin-1-yl}-1,1-dimethylethyl)acetamide] here?
Answer: The melting point was 190 to 192 °C.

Question: Which melting point does the source give for `CCOCc1nc2c(N)nc3cc(OCCN)ccc3c2n1CC(C)(C)O` [Example 654, 1-[4-Amino-7-(2-aminoethoxy)-2-(ethoxymethyl)-1H-imidazo[4,5-c]quinolin-1-yl]-2-methylpropan-2-ol] here?
Answer: Its melting point is 163 to 165 °C.

Question: For `CCCn1c(CCOC)nc2c(N)nc3cc(OC4CCN(C(=O)OC(C)(C)C)CC4)ccc3c21` [Example 387, tert-Butyl 4-{[4-amino-2-(2-methoxyethyl)-1-propyl-1H-imidazo[4,5-c]quinolin-7-yl]oxy}piperidine-1-carboxylate], which melting point is on record?
Answer: Its melting point is 173 to 175 °C.

Question: For `CCCn1c(COCC)nc2c(N)nc3ccc(OCCNC(=O)N4CCOCC4)cc3c21` [Example 4, N-(2-{[4-Amino-2-(ethoxymethyl)-1-propyl-1H-imidazo[4,5-c]quinolin-8-yl]oxy}ethyl)morpholine-4-carboxamide], which melting point is on record?
Answer: The melting point was 203 to 208 °C.

Question: Which melting point does the source give for `CCCn1c(CCOC)nc2c(N)nc3cc(OC4CCN(C(=O)NC(C)C)CC4)ccc3c21` [Example 388, 4-{[4-Amino-2-(2-methoxyethyl)-1-propyl-1H-imidazo[4,5-c]quinolin-7-yl]oxy}-N-isopropylpiperidine-1-carboxamide] here?
Answer: Its melting point is 176 to 179 °C.

Question: Which melting point does the source give for `CCCn1c(COCC)nc2c(N)nc3ccc(OCCNC(=O)C(C)C)cc3c21` (as salt: hydrochloride) [Example 5, N-(2-{[4-Amino-2-(ethoxymethyl)-1-propyl-1H-imidazo[4,5-c]quinolin-8-yl]oxy}ethyl)-2-methylpropanamide hydrochloride] here?
Answer: The melting point was 240 to 242 °C.

Question: For `CCOCc1nc2c(N)nc3cc(OC4CCN(C(C)=O)CC4)ccc3c2n1CC(C)(C)O` [Example 656, 1-[7-[(1-Acetylpiperidin-4-yl)oxy]-4-amino-2-(ethoxymethyl)-1H-imidazo[4,5-c]quinolin-1-yl]-2-methylpropan-2-ol], which melting point is on record?
Answer: The melting point was 162 to 164 °C.

Question: With `CCCn1c(COCC)nc2c(N)nc3ccc(OCC(=O)N4CCS(=O)(=O)CC4)cc3c21` [Example 565, 8-[2-(1,1-Dioxidothiomorpholin-4-yl)-2-oxoethoxy]-2-(ethoxymethyl)-1-propyl-1H-imidazo[4,5-c]quinolin-4-amine] as the molecule, how does the melting point read?
Answer: Its melting point is 223 to 225 °C.

Question: With `CCCCc1nc2c(N)nc3ccc(OCC(=O)N4CCOCC4)cc3c2n1C` [Example 32, 2-Butyl-1-methyl-8-(2-morpholin-4-yl-2-oxoethoxy)-1H-imidazo[4,5-c]quinolin-4-amine] as the molecule, how does the melting point read?
Answer: The melting point was 256.8 to 257.2 °C.

Question: For `COCCc1nc2c(N)nc3cc(OCC4OCCO4)ccc3c2n1CC(C)(C)O` [Example 564, 1-[4-Amino-7-(1,3-dioxolan-2-ylmethoxy)-2-(2-methoxyethyl)-1H-imidazo[4,5-c]quinolin-1-yl]-2-methylpropan-2-ol], which melting point is on record?
Answer: The melting point was 131 to 136 °C.
